The values below come from article PMC10460054, “Multiplex Quantitative Analysis of 9 Compounds of Scutellaria baicalensis Georgi in the Plasma of Respiratory Syncytial Virus-Infected Mice Based on HPLC-MS/MS and Pharmacodynamic Effect Correlation Analysis” (Molecules, 2023).

Data set [1] can be described thus: HPLC-MS/MS quantification of 9 compounds in plasma of RSV-infected mice after Scutellaria baicalensis Georgi administration. As to conditions: for drug-containing plasma content: RSV-infected mice, mean ± SD, n = 6. Set-up: drug-containing plasma content: unit not given here. The class given is in vivo, BALB/c mice. The method, then: The study employed a Vanquish high-performance liquid chromatograph for chromatographic separation, with a HALO C18 column (2.1 × 100 mm, 2.7 μm) as the chromatographic column.
Mass spectrometry was performed using a quadrupole-electrostatic field orbitrap desktop mass spectrometer equipped with an electrospray ion source (ESI). The ESI parameters were set as follows: the pyrolysis voltage was 3.0 kV, the auxiliary gas flow rate was 10 mL/min, the ion transport tube temperature was 350 °C, the auxiliary gas temperature was 350 °C, and the sheath gas flow rate was 45 L/min. Quantitative analysis was performed using the selective ion detection (SIM) mode (Table S1).
Male BALB/c mice, aged 2 weeks and weighing 10–12 g, were chosen for this study. They were acclimatized for 2 days and then randomly assigned to one of five groups: blank (C), model (M), positive control ribavirin (Y1), positive control lianhua qingwen granules (Y2), and Scutellaria baicalensis Georgi administration (H1-H12). Each group consisted of six mice, and their weights were recorded. The mice were pre-administered for 2 days, and on the third day, RSV virus (TCID50 = 10^−6) was inoculated through intranasal infection at a volume of 35 μL per mouse. The blank group was inoculated with normal saline of the same volume. After the inoculation of the RSV virus, the blank and model groups were given distilled water by gavage, while the drug-administered groups were given an aqueous extract of Scutellaria baicalensis Georgi (10 µL/g) once a day for 3 days. The mice were observed daily for their mental status, hair color, diet, and body weight. […] It was then centrifuged at 3000 r/min for 10 min, and the upper layer of plasma was stored at −80℃. Lung tissues were weighed, the lung index was calculated, and the lung tissues were stored in the refrigerator at −80 °C for freezing.
The plasma sample (200 μL) was processed in a 5 mL tube. Subsequently, 10 μL of 5% formic acid and 20 μL of 2 mol/L hydrochloric acid were added, followed by vortexing for 1 min with 10 μL of internal standard solution (100 ng/mL tinidazole). The extraction was completed by adding 2000 μL of acetonitrile solvent and vortexing for 2 min. The mixture was then centrifuged at 12,000 r/min at 4 °C for 10 min, and the supernatant solution was collected in a new centrifuge tube. The supernatant solution was dried by nitrogen at room temperature before being redissolved in 50 μL of 70% acetonitrile solution containing 0.1% formic acid. After vortexing for 1 min, the solution was centrifuged at 12,000 r/min at 4 °C for 10 min, and the resulting supernatant was injected for analysis. The injection volume was 3 μL.
The drug-containing plasma at different time points was subjected to sample treatment. The HPLC-MS/MS analysis method was used to quantitatively detect the 9 compounds in the ion detection (SIM) mode. According to the relative peak area value = index peak area/internal standard peak area, the corresponding concentration value was calculated by substituting the standard curve of each component.

Data set [2] can be described thus: Stability of 9 compounds in mouse plasma under storage conditions. The class given is in vitro ADME. To be noted: n = 6; for Stability 3-Freeze-Thaw Cycles RE: 3 times repeated freeze-thaw at −80 °C; for Stability Short-Term RE: 12 h at 4 °C; for Stability Long-Term RE: −20 °C for 20 days.
Data set [3] deals with RSV. As to conditions: cited from earlier work.
Where [4] appears, read: RSV-infected mice after Scutellaria baicalensis Georgi administration, double peak phenomenon.
Setting [5] is: high QC (20,000 or 10,000 ng/mL).

Converted amounts (≈) assume the structure as drawn.

As for `COc1c(O)cc(O)c2c(=O)cc(-c3ccccc3)oc12` [Wogonin], in data set [1] (setting [4]), the “time of highest plasma concentration, first peak” value was 0.167 h. For the same compound, in data set [1] (setting [4]), the “time of highest plasma concentration, second peak” value is reported as 6 h. For the same compound, the drug-containing plasma content in data set [1] (0.083 h after last gavage of Scutellaria baicalensis Georgi extract) turned out to be 344.59± 1.64; in data set [1] (0.167 h after last gavage of Scutellaria baicalensis Georgi extract) it was 981.37± 13.72; in data set [1] (0.25 h after last gavage of Scutellaria baicalensis Georgi extract) it was 471.39± 1.78; in data set [1] (0.5 h after last gavage of Scutellaria baicalensis Georgi extract), 222.21± 6.76; in data set [1] (1 h after last gavage of Scutellaria baicalensis Georgi extract) it was 181.04± 4.74; in data set [1] (2 h after last gavage of Scutellaria baicalensis Georgi extract) it was 10.35± 1.79. The drug-containing plasma content in data set [1] (4 h after last gavage of Scutellaria baicalensis Georgi extract) came out at 71.39± 17.8; in data set [1] (6 h after last gavage of Scutellaria baicalensis Georgi extract) it was 2664.55± 129.18; in data set [1] (8 h after last gavage of Scutellaria baicalensis Georgi extract), 97.31± 2.71; in data set [1] (10 h after last gavage of Scutellaria baicalensis Georgi extract) it was 14.65± 8.42; in data set [1] (12 h after last gavage of Scutellaria baicalensis Georgi extract) it was 3.41± 5.28; in data set [1] (24 h after last gavage of Scutellaria baicalensis Georgi extract), 0. Moreover, the “Stability 3-Freeze-Thaw Cycles RE” value in data set [2] (setting [5]) is on record as 12.89%; in data set [2] (low QC (12.5 or 25.6 ng/mL)) it was −11.16%; in data set [2] (medium QC (320 or 160 ng/mL)), 9.82%. The entries for the “Stability Short-Term RE” value in data set [2] (setting [5]), in data set [2] (low QC (12.5 or 25.6 ng/mL)) and in data set [2] (medium QC (320 or 160 ng/mL)) were 8.46%, −9.77% and 11.75%, respectively. For the same compound, the “Stability Long-Term RE” value is recorded as 8.46% in data set [2] (setting [5]), −13.33% in data set [2] (low QC (12.5 or 25.6 ng/mL)) and 11.75% in data set [2] (medium QC (320 or 160 ng/mL)). Moreover, the “IC50 against RSV” value in data set [3] is 7.4 µg/mL (≈ 26 µM).
